# Reference: US6525001B1, “Substituted pyrimidine and pyridine herbicides” (Mid-American Commercialization Corporation, priority 1997, dated 2003)
# Tests used:
# Assay in all cases: Test D
# Format in all cases: in vivo
# [1] = tested on: Italian ryegrass (Lolium multiflorum); settings: POSTEMERGENCE
# Protocol: (§1) Compounds evaluated in this test were formulated in a non-phytotoxic solvent mixture which included a surfactant and applied to plants that were in the 1- to 4-leaf stage (postemergence application). A mixture of sandy loam soil and greenhouse potting mix in a 60:40 ratio was used for the postemergence test.
# (§2) Plantings of these crops and weed species were adjusted to produce plants of appropriate size for the postemergence test. All plant species were grown using normal greenhouse practices. Crop and weed species include alfalfa (Medicago sativa), annual bluegrass (Poa annua), blackgrass (Alopecurus myosuroides), black nightshade (Solanum nigra), chickweed (Stellaria media), common poppy (Papaver rhoeas), deadnettle (Lamium amplexicaule), downy brome (Bromus tectorum), field violet (Viola arvensis), galium 2 (Galium aparine), green foxtail (Setaria viridis), Italian ryegrass (Lolium multiflorum), jointed goatgrass (Aegilops cylindrica), kochia (Kochia scoparia), lambsquarters (Chenopodium album), lentil (Lens culinaris), littleseed canarygrass (Phalaris minor), pea (Pisum sativum), potato (Solanum tuberosum), rape (Brassica napus), redroot pigweed (Amaranthus retroflexus), Russian thistle (Salsola kali), scentless chamomile (Matricaria inodora), sorghum (Sorghum vulgare), spring barley (Hordeum vulgare), sugar beet (Beta vulgaris), sunflower (Helianthus annuus), ivyleaf speedwell (Veronica hederaefolia), spring wheat (Triticum aestivum), winter wheat (Triticum aestivum), wild buckwheat (Polygonum convolvulus), wild mustard (Sinapis arvensis), wild oat (Avena fatua), windgrass (Apera spica-venti) and winter barley (Hordeum vulgare).
# (§3) Treated plants and untreated controls were maintained in a greenhouse for approximately 21 to 28 days, after which all treated plants were compared to untreated controls and visually evaluated. Plant response ratings, summarized in Table D, are based upon a 0 to 100 scale where 0 is no effect and 100 is complete control. A dash response (−) means no test result.
# [2] = tested on: annual bluegrass (Poa annua); settings: POSTEMERGENCE
# Protocol: as §1, §2, §3
# [3] = tested on: blackgrass (Alopecurus myosuroides); settings: POSTEMERGENCE
# Protocol: as §1, §2, §3
# [4] = tested on: downy brome (Bromus tectorum); settings: POSTEMERGENCE
# Protocol: as §1, §2, §3
# [5] = tested on: green foxtail (Setaria viridis); settings: POSTEMERGENCE
# Protocol: as §1, §2, §3
# [6] = tested on: jointed goatgrass (Aegilops cylindrica); settings: POSTEMERGENCE
# Protocol: as §1, §2, §3
# [7] = tested on: littleseed canarygrass (Phalaris minor); settings: POSTEMERGENCE
# Protocol: as §1, §2, §3
# [8] = tested on: scentless chamomile (Matricaria inodora); settings: POSTEMERGENCE
# Protocol: as §1, §2, §3
# [9] = tested on: spring barley (Hordeum vulgare); settings: POSTEMERGENCE
# Protocol: as §1, §2, §3
# [10] = tested on: spring wheat (Triticum aestivum); settings: POSTEMERGENCE
# Protocol: as §1, §2, §3
# [11] = tested on: sunflower (Helianthus annuus); settings: POSTEMERGENCE
# Protocol: as §1, §2, §3
# [12] = tested on: wild oat (Avena fatua); settings: POSTEMERGENCE
# Protocol: as §1, §2, §3
# [13] = tested on: windgrass (Apera spica-venti); settings: POSTEMERGENCE
# Protocol: as §1, §2, §3
# [14] = tested on: winter barley (Hordeum vulgare); settings: POSTEMERGENCE
# Protocol: as §1, §2, §3
# [15] = tested on: winter wheat (Triticum aestivum); settings: POSTEMERGENCE
# Protocol: as §1, §2, §3
# [16] = tested on: field violet (Viola arvensis); parameters: key: 0 is no effect; 100 is complete control; settings: POSTEMERGENCE
# Protocol: as §1, §2, §3
# [17] = tested on: Italian ryegrass (Lolium multiflorum); settings: PREEMERGENCE
# [18] = tested on: lambsquarters (Chenopodium album); settings: PREEMERGENCE
# [19] = tested on: spring barley (Hordeum vulgare); parameters: key: 0 is no effect; settings: PREEMERGENCE
# [20] = tested on: sunflower (Helianthus annuus); settings: PREEMERGENCE
# [21] = tested on: wild oat (Avena fatua); parameters: key: 0 is no effect; 100 is complete control; settings: PREEMERGENCE
compound,measurement,setting,value
CCc1cnc(-c2ccc(C(F)(F)F)cc2)nc1Cc1cccc(C(F)(F)F)c1 [Compound 22],"Plant response rating, I. Ryegrass",[1]; Rate 62 g/ha,10
same,"Plant response rating, I. Ryegrass",[1]; Rate 125 g/ha,10
same,"Plant response rating, Annual bluegras",[2]; Rate 62 g/ha,30
same,"Plant response rating, Annual bluegras",[2]; Rate 125 g/ha,70
same,"Plant response rating, Blackgrass",[3]; Rate 62 g/ha,10
same,"Plant response rating, Blackgrass",[3]; Rate 125 g/ha,20
same,"Plant response rating, Downy brome",[4]; Rate 62 g/ha,10
same,"Plant response rating, Downy brome",[4]; Rate 125 g/ha,20
same,"Plant response rating, Green foxtail",[5]; Rate 62 g/ha,10
same,"Plant response rating, Green foxtail",[5]; Rate 125 g/ha,35
same,"Plant response rating, Jointed goatgra",[6]; Rate 62 g/ha,10
same,"Plant response rating, Jointed goatgra",[6]; Rate 125 g/ha,15
same,"Plant response rating, LS canarygrass",[7]; Rate 62 g/ha,20
same,"Plant response rating, LS canarygrass",[7]; Rate 125 g/ha,60
same,"Plant response rating, Scentless chamo",[8]; Rate 62 g/ha,50
same,"Plant response rating, Scentless chamo",[8]; Rate 125 g/ha,80
same,"Plant response rating, Spring Barley",[9]; Rate 62 g/ha,10
same,"Plant response rating, Spring Barley",[9]; Rate 125 g/ha,20
same,"Plant response rating, Spring Wheat",[10]; Rate 62 g/ha,10
same,"Plant response rating, Spring Wheat",[10]; Rate 125 g/ha,20
same,"Plant response rating, Sunflower",[11]; Rate 62 g/ha,10
same,"Plant response rating, Sunflower",[11]; Rate 125 g/ha,20
same,"Plant response rating, Wild oat",[12]; Rate 62 g/ha,20
same,"Plant response rating, Wild oat",[12]; Rate 125 g/ha,65
same,"Plant response rating, Windgrass",[13]; Rate 62 g/ha,30
same,"Plant response rating, Barley (winter)",[14]; Rate 62 g/ha,10
same,"Plant response rating, Barley (winter)",[14]; Rate 125 g/ha,10
same,"Plant response rating, Wheat (winter)",[15]; Rate 62 g/ha,10
same,"Plant response rating, Wheat (winter)",[15]; Rate 125 g/ha,10
same,"Plant response rating, Field violet",[16]; Rate 62 g/ha,100
same,"Plant response rating, Field violet",[16]; Rate 125 g/ha,100
same,"Plant response rating, I. Ryegrass",[17]; Rate 125 g/ha,65
same,"Plant response rating, I. Ryegrass",[17]; Rate 250 g/ha,75
same,"Plant response rating, Lambsquarters",[18]; Rate 62 g/ha,60
same,"Plant response rating, Lambsquarters",[18]; Rate 125 g/ha,70
same,"Plant response rating, Lambsquarters",[18]; Rate 250 g/ha,70
same,"Plant response rating, Spring Barley",[19]; Rate 62 g/ha,0
same,"Plant response rating, Spring Barley",[19]; Rate 125 g/ha,10
same,"Plant response rating, Spring Barley",[19]; Rate 250 g/ha,2
same,"Plant response rating, Sunflower",[20]; Rate 62 g/ha,20
same,"Plant response rating, Sunflower",[20]; Rate 125 g/ha,10
same,"Plant response rating, Sunflower",[20]; Rate 250 g/ha,30
same,"Plant response rating, Wild oat",[21]; Rate 62 g/ha,0
same,"Plant response rating, Wild oat",[21]; Rate 125 g/ha,30
same,"Plant response rating, Wild oat",[21]; Rate 250 g/ha,30
"Cc1cnc(-c2ccc(C(F)(F)F)cc2)nc1Cc1cccc(C(F)(F)F)c1 [Example 1, 5-methyl-2-[4-(trifluoromethyl)phenyl]-4-[[3-(trifluoromethyl)phenyl]methyl]pyrimidine]","Plant response rating, I. Ryegrass",[1]; Rate 16 g/ha,5
same,"Plant response rating, I. Ryegrass",[1]; Rate 31 g/ha,10
same,"Plant response rating, I. Ryegrass",[1]; Rate 62 g/ha,10
same,"Plant response rating, I. Ryegrass",[1]; Rate 125 g/ha,10
same,"Plant response rating, Annual bluegras",[2]; Rate 16 g/ha,20
same,"Plant response rating, Annual bluegras",[2]; Rate 31 g/ha,50
same,"Plant response rating, Annual bluegras",[2]; Rate 62 g/ha,50
same,"Plant response rating, Blackgrass",[3]; Rate 16 g/ha,10
same,"Plant response rating, Blackgrass",[3]; Rate 31 g/ha,10
same,"Plant response rating, Blackgrass",[3]; Rate 62 g/ha,10
same,"Plant response rating, Blackgrass",[3]; Rate 125 g/ha,30
same,"Plant response rating, Downy brome",[4]; Rate 16 g/ha,2
same,"Plant response rating, Downy brome",[4]; Rate 31 g/ha,10
same,"Plant response rating, Downy brome",[4]; Rate 62 g/ha,10
same,"Plant response rating, Downy brome",[4]; Rate 125 g/ha,10
same,"Plant response rating, Green foxtail",[5]; Rate 16 g/ha,5
same,"Plant response rating, Green foxtail",[5]; Rate 31 g/ha,10
same,"Plant response rating, Green foxtail",[5]; Rate 62 g/ha,20
same,"Plant response rating, Green foxtail",[5]; Rate 125 g/ha,20
same,"Plant response rating, Jointed goatgra",[6]; Rate 16 g/ha,5
same,"Plant response rating, Jointed goatgra",[6]; Rate 31 g/ha,10
same,"Plant response rating, Jointed goatgra",[6]; Rate 62 g/ha,10
same,"Plant response rating, Jointed goatgra",[6]; Rate 125 g/ha,10
same,"Plant response rating, LS canarygrass",[7]; Rate 16 g/ha,10
same,"Plant response rating, LS canarygrass",[7]; Rate 31 g/ha,10
same,"Plant response rating, LS canarygrass",[7]; Rate 62 g/ha,20
same,"Plant response rating, LS canarygrass",[7]; Rate 125 g/ha,20
same,"Plant response rating, Scentless chamo",[8]; Rate 16 g/ha,30
same,"Plant response rating, Scentless chamo",[8]; Rate 31 g/ha,60
same,"Plant response rating, Scentless chamo",[8]; Rate 62 g/ha,60
same,"Plant response rating, Scentless chamo",[8]; Rate 125 g/ha,60
same,"Plant response rating, Spring Barley",[9]; Rate 16 g/ha,5
same,"Plant response rating, Spring Barley",[9]; Rate 31 g/ha,10
same,"Plant response rating, Spring Barley",[9]; Rate 62 g/ha,10
same,"Plant response rating, Spring Barley",[9]; Rate 125 g/ha,10
same,"Plant response rating, Spring Wheat",[10]; Rate 16 g/ha,5
same,"Plant response rating, Spring Wheat",[10]; Rate 31 g/ha,10
same,"Plant response rating, Spring Wheat",[10]; Rate 62 g/ha,10
same,"Plant response rating, Spring Wheat",[10]; Rate 125 g/ha,20
same,"Plant response rating, Sunflower",[11]; Rate 16 g/ha,5
same,"Plant response rating, Sunflower",[11]; Rate 31 g/ha,10
same,"Plant response rating, Sunflower",[11]; Rate 62 g/ha,20
same,"Plant response rating, Sunflower",[11]; Rate 125 g/ha,20
same,"Plant response rating, Wild oat",[12]; Rate 16 g/ha,5
same,"Plant response rating, Wild oat",[12]; Rate 31 g/ha,20
same,"Plant response rating, Wild oat",[12]; Rate 62 g/ha,20
same,"Plant response rating, Wild oat",[12]; Rate 125 g/ha,30
same,"Plant response rating, Windgrass",[13]; Rate 16 g/ha,5
same,"Plant response rating, Windgrass",[13]; Rate 31 g/ha,20
same,"Plant response rating, Windgrass",[13]; Rate 125 g/ha,30
same,"Plant response rating, Barley (winter)",[14]; Rate 16 g/ha,5
same,"Plant response rating, Barley (winter)",[14]; Rate 31 g/ha,10
same,"Plant response rating, Barley (winter)",[14]; Rate 62 g/ha,10
same,"Plant response rating, Barley (winter)",[14]; Rate 125 g/ha,10
same,"Plant response rating, Wheat (winter)",[15]; Rate 16 g/ha,5
same,"Plant response rating, Wheat (winter)",[15]; Rate 31 g/ha,10
same,"Plant response rating, Wheat (winter)",[15]; Rate 62 g/ha,10
same,"Plant response rating, Wheat (winter)",[15]; Rate 125 g/ha,10
same,"Plant response rating, Field violet",[16]; Rate 16 g/ha,20
same,"Plant response rating, Field violet",[16]; Rate 31 g/ha,100
same,"Plant response rating, Field violet",[16]; Rate 62 g/ha,100
same,"Plant response rating, Field violet",[16]; Rate 125 g/ha,80
same,"Plant response rating, I. Ryegrass",[17]; Rate 31 g/ha,10
same,"Plant response rating, I. Ryegrass",[17]; Rate 62 g/ha,40
same,"Plant response rating, Lambsquarters",[18]; Rate 31 g/ha,10
same,"Plant response rating, Lambsquarters",[18]; Rate 62 g/ha,70
same,"Plant response rating, Lambsquarters",[18]; Rate 125 g/ha,70
same,"Plant response rating, Lambsquarters",[18]; Rate 250 g/ha,70
same,"Plant response rating, Spring Barley",[19]; Rate 31 g/ha,10
same,"Plant response rating, Spring Barley",[19]; Rate 62 g/ha,20
same,"Plant response rating, Spring Barley",[19]; Rate 125 g/ha,20
same,"Plant response rating, Spring Barley",[19]; Rate 250 g/ha,40
same,"Plant response rating, Sunflower",[20]; Rate 31 g/ha,10
same,"Plant response rating, Sunflower",[20]; Rate 62 g/ha,35
same,"Plant response rating, Sunflower",[20]; Rate 125 g/ha,50
same,"Plant response rating, Sunflower",[20]; Rate 250 g/ha,30
same,"Plant response rating, Wild oat",[21]; Rate 31 g/ha,20
same,"Plant response rating, Wild oat",[21]; Rate 62 g/ha,60
same,"Plant response rating, Wild oat",[21]; Rate 125 g/ha,60
same,"Plant response rating, Wild oat",[21]; Rate 250 g/ha,90
